Measurements: publication PMC8329280 (Scientific Reports, 2021)
Non-standard residues stand in square brackets, D forms with d. Residues, ends and D or L forms follow the SMILES beside them. No end group written: not given here. Dopa = N[C@@H](Cc1ccc(O)c(O)c1)C(=O)O

What was measured:
[1] = system: methicillin sensitive S. aureus (MSSA, strain 49775); format: cell-based, Staphylococcus aureus
Description: (§1) Antibacterial assays were realized to the method previously reported[22],[25]. S. aureus strains were pre-cultured for 20 h in aerobic conditions at 37 °C in Mueller–Hinton Broth (MHB) medium (Becton–Dickinson Microbiology Company, Sparks, USA) (pH 7.4). Bacteria were suspended at absorbance of 0.001 at 620 nm in the MHB medium. Antibacterial activity was tested for 24 h incubation at 37 °C with shaking by measuring the inhibition of bacterial growth. Ten µl of final volumes (10–200 µg/mL) of synthetic peptides were incubated in microtitration plates with 90 µl of a mid-logarithmic phase culture of bacteria, with a starting absorbance of 0.001 at 620 nm. A mixture of Tetracycline (10 mg/L) and Cefotaxime (0.1 mg/L) were used as positive controls. Microbial growth was assessed by the increase of absorbance after 24 h incubation at 37 °C. The A620 nm value of control cultures growing in the absence of peptide and antibiotics was defined as 100% growth. A620 nm value with the antibiotics (Tetracycline and Cefotaxime) was taken as 100% inhibition. Absence of bacterial growth was verified by agar plate spreading. Each assay was performed in triplicates. Data were shown as mean + /− standard deviation of three independent experiments; p < 0.05.

Candida albicans = format: cell-based
Description: (§2) The L- and D- forms of Ctl and also the corresponding L- and D-forms of the scramble peptides were tested by Atlangram (Nantes, France) against resistant Gram-negative bacteria (Escherichia coli, Klebsiella pneumoniae, Enterobacter cloacae, Enterobacter aerogenes, Serratia marcescens, Morganella morganii, Pseudomonas aeruginosa), MSSA, MRSA and yeast (C. albicans). The MICs were determined according to the CASFM/EUCAST 2018 (Comité de l’Antibiogramme de la Société Française de Microbiologie).

Enterobacter cloacae = format: cell-based
Description: as §2

Morganella morganii = format: cell-based
Description: as §2

Pseudomonas aeruginosa = format: cell-based
Description: as §2

Serratia marcescens = format: cell-based
Description: as §2

MRSA = format: cell-based, Staphylococcus aureus
Description: as §2

MSSA = format: cell-based, Staphylococcus aureus
Description: as §2

[2] = system: proteases produced by Staphylococcus aureus; details: cited from earlier work
Description: In particular, CgA is an acidic glyco-phospho-protein stored in secretory vesicles of numerous nervous, neuroendocrine and immune cells. […] In a ...

[3] = system: human gingival fibroblast (HGF-1); details: cited from earlier work
[4] = system: human intestinal epithelial cell (caco-2); details: cited from earlier work
S. aureus 25923 (MSSA) = format: cell-based, Staphylococcus aureus; details: 25923, 24 h
Description: as §1

S. aureus V8 = format: cell-based, Staphylococcus aureus; details: V8, 24 h
Description: as §1

[5] = biological target: Endoprotease Glu-C from S. aureus V8 (E.C. 3.4.21.19) (Staphylococcus aureus, UniProt P0C1U8); details: 50 mM Tris–HCl pH 8.2, 37 °C, enzyme added for 4 h then same amount for 18 h; RP-HPLC, optical density at 214 nm
Description: Endoprotease Glu-C from S. aureus V8 (E.C. 3.4.21.19) was provided from Sigma Aldrich (Saint Louis, USA). Digestion of DOPA5T-Ctl (12.5 µg) by endoprotease Glu-C (Sigma-Aldrich Chemie Saint Quentin Fallavier, France) (3.5 µg) was obtained for 18 h at 37 °C in 50 mM Tris–HCl pH 8.2 or PBS[28]. Enzyme (1.75 µg) was added for a digestion of 4 h and then the same amount was added for 18 h. The enzymatic digestion was stopped by addition of 25 µL of 0.1% (vol/vol) TFA in milliQ water. The fragments resulting from enzymatic digestion were isolated with a RP-HPLC with a Dionex HPLC system on a Vydac 208 TP C8 column (3 × 250 mm), and identified by Maldi-tof mass spectrometry, as previously reported for the characterization of the synthetic peptides.

Enterobacter aerogenes = format: cell-based
Description: as §2

Escherichia coli = format: cell-based
Description: as §2

Klebsiella pneumoniae = format: cell-based
Description: as §2

Citrobacter freundii = format: cell-based

Chain of Endoprotease Glu-C from S. aureus V8 (E.C. 3.4.21.19) (P0C1U8 69-336): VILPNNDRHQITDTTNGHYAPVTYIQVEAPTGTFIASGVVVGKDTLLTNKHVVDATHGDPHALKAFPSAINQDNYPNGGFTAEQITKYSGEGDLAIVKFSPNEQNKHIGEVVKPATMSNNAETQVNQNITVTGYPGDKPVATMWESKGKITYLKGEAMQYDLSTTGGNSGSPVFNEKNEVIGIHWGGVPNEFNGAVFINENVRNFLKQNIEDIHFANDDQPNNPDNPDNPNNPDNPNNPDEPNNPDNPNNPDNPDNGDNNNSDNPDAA

Compound | MIC MSSA ([1]; methicillin sensitive (, strain 49775, 20 h)) [µg/mL] | MIC (Candida albicans) [µg/mL] | MIC (Enterobacter cloacae) [µg/mL] | MIC (Morganella morganii) [µg/mL] | MIC (Pseudomonas aeruginosa) [µg/mL] | MIC (Serratia marcescens) [µg/mL] | MIC (MRSA) [µg/mL] | MIC (MSSA) [µg/mL] | degradation by the proteases produced by Staphylococcus aureus [2] | toxicity for HGF-1 [3] | toxicity for caco-2 [4] | IC50 (S. aureus 25923 (MSSA)) [µM] | IC50 (S. aureus V8) [µM] | IC50 ([1]; methicillin sensitive (, strain 49775, 24 h)) [µM] | Ctl and its oxidized form released after Glu-C digestion [5] [%] | proteolysis by Glu-C endoprotease [5] | MIC (Enterobacter aerogenes) [µg/mL] | MIC (Escherichia coli) [µg/mL] | MIC (Klebsiella pneumoniae) [µg/mL] | MIC (Citrobacter freundii) [µg/mL]
RSMRLSFRARGYGFR [Ctl, Cateslytin] | 93.0 | 512 | > 128 | > 128 | > 128 | > 128 | > 128 | > 128 | resistant to degradation | not toxic | not toxic |  |  |  |  |  |  |  |  | 
CSCC[C@H](NC(=O)[C@H](CO)NC(=O)[C@H](CCCNC(=N)N)NC(=O)[C@H](CCC(=O)O)NC(=O)CNC(=O)CNC(=O)[C@H](CCCNC(=N)N)NC(=O)[C@H](CC(C)C)NC(=O)[C@@H](NC(=O)[C@H](Cc1ccc(O)c(O)c1)NC(=O)[C@H](CCCCN)NC(=O)[C@H](Cc1ccc(O)c(O)c1)NC(=O)[C@H](CCCCN)NC(=O)[C@@H](N)Cc1ccc(O)c(O)c1)[C@@H](C)O)C(=O)N[C@@H](CCCNC(=N)N)C(=O)N[C@@H](CC(C)C)C(=O)N[C@@H](CO)C(=O)N[C@@H](Cc1ccccc1)C(=O)N[C@@H](CCCNC(=N)N)C(=O)N[C@@H](C)C(=O)N[C@@H](CCCNC(=N)N)C(=O)NCC(=O)N[C@@H](Cc1ccc(O)cc1)C(=O)NCC(=O)N[C@@H](Cc1ccccc1)C(=O)N[C@@H](CCCNC(=N)N)C(=O)O [DOPA5T-Ctl] (H-[Dopa]K[Dopa]K[Dopa]TLRGGERSMRLSFRARGYGFR-OH) |  |  |  |  |  |  |  |  |  |  |  | 20 | 65 | 45 | 76 | full proteolysis |  |  |  | 
FMRLRYRSSAFGGRR [Control L, reference compound] |  | 512 | > 128 | > 128 | > 128 | > 128 | > 128 | > 128 |  |  |  |  |  |  |  |  | > 128 | > 128 | > 128 | > 128
